Article PMC10669037, “CRISPR/Cas12a Collateral Cleavage Activity for Sensitive 3′–5′ Exonuclease Assay” (Biosensors, 2023)

Test system: T1, Exonuclease III (Exo III)
T1 construct: gene xthA; commercial enzyme from New England BioLabs
Assay: hairpin DNA digestion, coupled to Cas12a collateral cleavage of fluorescent reporter
Format: biochemical
Conditions: acts by metal chelation, not a specific binder; Exo III 5 U/mL, 10 min preincubation, hairpin probe substrate, magnesium acetate buffer pH 7.9, 37 °C; EDTA carried into the Cas12a read-out step

- IC50: 6.34 mM
SMILES: O=C(O)CN(CCN(CC(=O)O)CC(=O)O)CC(=O)O [EDTA]
